# Tested on: Culex quinquefasciatus
# Experiment: K & D Module Repellency Test (Complete Protection Time on volunteer's arm)
# Format: in vivo
# Conditions: Table 2; for Avg Duration: active package only in water/isopropanol, 100% repellency threshold (CPT)
# Text: Efficacy, Duration, and Percent Repellency: The primary method used to assess the efficacy and duration of an insect repellent is the “Arm-in-Cage Test”. The term “duration” as used herein refers to the time between (1) the application of the insect repellent composition and (2) when the subject first drops below the applicable minimum percent repellency threshold. For all of the testing methodologies used herein, the minimum threshold value for “percent repellency” at which the measurement for duration is cutoff is at least (≥) 90% repellency. For some testing methodologies used herein (such as the “Arm-in-Cage Test”), the minimum threshold value for “percent repellency” was 90% repellency. For other testing methodologies used herein (such as the “K & D Module Repellency Test”), the minimum threshold value for percent repellency was 100% repellency. When a duration is measured using a minimum threshold of 100% repellency, the duration may also be referred to as “Complete Protection Time” (CPT).
# Another method that may be used to assess the insect repellent efficacy of an insect repellent composition is the “K & D Module Repellency Test.” The insect repellent efficacy is measured using a minimum repellency threshold of 100% repellency, which may also be referred to as the Complete Protection Time (CPT) of an insect repellent composition, which is the time period between the application of the insect repellent composition and the first insect landing.
# In the K & D Module Repellency Test the test volunteer used a marker and a template, representing the base and the 3 cm.×4 cm. openings of the K & D module, to mark skin areas of his/her arm which were then treated with different insect repellent compositions at a skin dose of 0.0017 grams/cm^2 against the insect (in this case, Culex quinquefasciatus). The rectangular marks on the volunteer's arm represented where the six cells of the K & D module were positioned on the volunteer's arm. Each cell of the K & D module was filled with ten mated female mosquitoes (Culex quinquefasciatus), and the floor slide was removed from each cell to expose all mosquitoes to all skin treatments. The time between removing the floor slide of each cell and the first mosquito from the cell landing is recorded as the CPT.
SMILES,Avg Duration [h],Avg Duration (skin dose 0.0017 grams/cm^2) [h],Duration (Min) (Time of confirmation land) Subject 1 (active package only) [min],Duration (Min) (Time of confirmation land) Subject 2 (active package only) [min],Duration (Min) (Time of confirmation land) Subject 3 (active package only) [min],"Duration (Min) (Time of confirmation land) Subject 4 (active package only, Subject 4) [min]"
"C=CCc1ccc(O)c(OC)c1 [CE17, eugenol]",1.7,1.67,60,120,120,100
"CC(C)=CCC/C(C)=C/CO [CE36, geraniol]",0.8,0.833,30,60,60,

# — patent US12310372B1, “Water-based insect repellent composition” (priority 2022, dated 2025)
